# Earlier results as cited in patent publication US4083974A, “Topical steroidal anti-inflammatory preparations containing polyoxypropylene 15 stearyl ether” (The Upjohn Company, priority 1977, dated 1978).
# Columns and labels:
# [1] = known property of the prior-art solvent
# [2] = known property from the art
# bacterial = settings: prior art; composition contains approximately 15% ethyl alcohol
SMILES,irritation to the skin [1],lubricant properties [2],anti-bacterial activity (bacterial)
"CC(O)CO (stereo not drawn) [Propylene glycol, propylene glycol]",irritating to the skin,non-lubricant,
CCO [ethyl alcohol],,,known anti-bacterial agent
